From US20050004007A1, “Promotion of adoptosis in cancer cells by co-administration of cyclin dependent kinase inhibitiors and cellular differentiation agents” (priority 2000, published 2005)

Experiments:
U937 cells = assay: cell cycle analysis (propidium iodide, flow cytometry); type: cell-based, human
Method: Cell Cycle Analysis. Following drug treatment, cells were pelleted by centrifugation at 500 g×6 min, and resuspended in 70% ethanol. The cells were incubated on ice for at least 1 h and resuspended in 1 ml cell cycle buffer (0.38 mM Na-Citrate, 0.5 mg/ml RNase A, and 0.01 mg/ml propidium iodide) at a concentration of 10×10^5 cells/ml, stored in the dark at 4 C until analysis (24 h), using a Becton-Dickinson FACScan flow cytometer and Verity Winlist software (Verity Software, Topsham, Me.).

[1] = test system: HL60 human leukemia cells; assay: loss of mitochondrial membrane potential (DiOC6 uptake); type: cell-based; conditions: 3, 5, or 10 μM ATRA and 80 nM FP
Method: Assessment of mitochondrial membrane potential. At designated times, 1 ml aliquots of cells (2×10^5) were harvested and incubated with 40 nM DiOC6 for 15 minutes at 25° C. as previously described [Zamzami et al 1995]or at 37° C. Samples were analyzed using a Becton Dickinson FACScan flow cytometer (excitation λ=488 nm; emission λ=525 nm). […] Data acquisition and analysis was performed using […] Software (Becton Dickinson, Mansfield, Mass.).

ERK1/2 = assay: Western analysis of phosphorylated p44/p42 MAPK in U937 cells; type: cell-based, human; conditions: 10 nM PMA, 100 nM FP, 30 min-6 h
Method: Western analysis. Equal quantities of protein (15 μg/condition for MAPK, 40 μg/condition for cytochrome c, or 25 μg/condition) were separated by SDS-PAGE [underphosporylated pRB (7.5%), poly(ADP-ribose)polymerase or PARP (8.0%), p44/p42 MAPK (10%), p21, p27, procaspase 3 (12%), and cytochrome c (15%)] and electroblotted onto nitrocellulose. Western analysis of p44/p42 MAPK protein was performed according to the manufacturer's instructions (New England Biolabs); otherwise, studies were performed as previously described [Wang et al, 1998]. Briefly, U937 cells (5×10^6) were pelleted by centrifugation, resuspended in 50 μl PBS, lysed by the addition of 2× Laemmli buffer and boiled for 5 min. Proteins were quantified with Coomassie protein assay reagent. Blots were blocked in PBS-T/5% milk, washed twice with PBS-T, and incubated overnight at 4° C. with the appropriate primary antibody. The blots were washed with PBS-T and incubated with a horseradish-peroxidase conjugated secondary antibody diluted appropriately in PBS-T/5% mill. Following incubation, blots were developed by enhanced chemiluminescence exposure to Kodak X-OMAT film (Eastman Kodak Co., Rochester, N.Y.) and reprobed with antibodies directed against actin to control for equal loading of protein.

cdk2 and cdk4 = assay: Western analysis of cdk2/4-phosphorylated pRb in U937 cells; type: cell-based, human; conditions: FP 100 nM, SB 1 mM
Method: Alternatively, whole cell-pellets were washed twice in PBS, resuspended in PBS, and lysed by the addition of I volume of loading buffer. Lysates were boiled for 10 min, centrifuged at 12,800 g for 5 min and quantified using Coomassie protein assay reagent (Pierce, Rockfold, Ill.). 25 μg of total proteins per point were separated by SDS-PAGE and electro-blotted to nitrocellulose. The blots were blocked in 5% non-fat milk in PBS-T and probed for 1 h with the appropriate dilution of primary antibody. Blots were washed 3×10 min in PBS-T and then incubated with a 1:2000 dilution of peroxidase-conjugated secondary antibody for 1 h at room temperature. Blots were again washed 3×10 min in PBS-T and then developed by enhanced chemiluminesence. Where indicated, blots were stripped and re-probed with antibodies directed against actin. […]

cyclin D1 = assay: Western analysis of cyclin D1 in U937 cells; type: cell-based, human
Method: Alternatively, whole cell-pellets were washed twice in PBS, resuspended in PBS, and lysed by the addition of I volume of loading buffer. Lysates were boiled for 10 min, centrifuged at 12,800 g for 5 min and quantified using Coomassie protein assay reagent (Pierce, Rockfold, Ill.). 25 μg of total proteins per point were separated by SDS-PAGE and electro-blotted to nitrocellulose. The blots were blocked in 5% non-fat milk in PBS-T and probed for 1 h with the appropriate dilution of primary antibody. Blots were washed 3×10 min in PBS-T and then incubated with a 1:2000 dilution of peroxidase-conjugated secondary antibody for 1 h at room temperature. Blots were again washed 3×10 min in PBS-T and then developed by enhanced chemiluminesence. Where indicated, blots were stripped and re-probed with antibodies directed against actin.
Primary antibodies for both p21^WAF1/CIP1 and p27^KIP1 (Transduction Laboratories, Lexington, Ky.) were used in a 1:1000 dilution; PARP (1:1000; Oncogene Research Products, Cambridge, Mass.); pro-caspase 3 (1:1000; Transduction Laboratories); cytochrome c (1:2000; Pharmingen); bcl-2 (1:2000; DAKO, Denmark); bax (1:1000; Santa Cruz Biotechnology, Inc., Santa Cruz, Calif.); bid (1:1000; Cell Signaling, Beverly, Mass.); XIAP (1:1000; Cell Signaling); Mcl-1 (1:1000; Pharmingen); bak (1:1000; Calbiochem); c-Myc (1:1000; Pharmingen, San Diego, Calif.); actin (1:2000; Sigma Chemicals, St. Louis, Mo.); cyclins-D1, -A and -E (1:1000; Pharmingen); pRb, underP-pRb, pRb-CDK2 and pRb-CDK4 (all 1:1000; Pharmingen); Ac-H3 and Ac-H4 (both 1:1000; Upstate Biotechnology, Lake Placid, N.Y.); E2F-1 (Upstate Biotechnology). Secondary antibodies conjugated to horseradish peroxidase were obtained from Kirkegaard and Perry Laboratories, Inc. (Gaithersburg, Md.). Coomassie protein assay reagent was purchased from Pierce (Rockford, Ill.), and an enhanced chemiluminescence kit was obtained from New England Nuclear (Boston, Mass.). […]

histones H3 and H4 = assay: acetylated histone Western (HDAC assay) in U937 cells; type: cell-based, human; conditions: 1 mM SB, 100 nM FP
Method: Histone Deacetylase (HDAC) Assay. Acid extraction of proteins from treated cells and detection of acetylated histones H3 and H4 by Western blot analysis was performed per the manufacturer's instructions (Upstate Biotechnology). 10 μg of extract was loaded per lane and separated on pre-cast 4-20% Biorad Gradient Gels.

SMILES | cell cycle distribution (U937 cells; 24 h after administration of SAHA, FP or both) | percentage of cells arresting in G0/G1 (U937 cells; 48 h, 1 mM SB or 100 nM FP) [%] | loss of mitochondrial membrane potential (Δψm) [1] | phosphorylation (activation) of ERK1/2 (ERK1/2) | cdk2/4 activities (cdk2/4-phosphorylated pRb) (cdk2 and cdk4) | FP concentration at which reduction in cyclin D1 levels was first observed (cyclin D1; 12 and 24 hours treatment) [nM] | FP concentration at which reduction in cyclin D1 levels was virtually complete (cyclin D1; 12 and 24 hours treatment) [nM] | percentage of cells arresting in G0/G1 (U937 cells; 24 h, 1 mM SB) [%] | acetylation of histones H3 and H4 (histones H3 and H4) | cyclin D1 protein (cyclin D1; SB 1 mM 24 hours, FP and SB 12 hours)
CN1CC[C@H](c2c(O)cc(O)c3c(=O)cc(-c4ccccc4Cl)oc23)[C@H](O)C1 [FP, Flavopiridol] | increase in the G0/G1 population | ~53 | no effect | modestly increased ERK activation | moderate inhibition | 100 | 300 | – | – | –
CCCC(=O)[O-].[Na+] [SB, sodium butyrate] | – | 81.6 | – | – | – | – | – | 48.1 | Acetylation of H3 and H4 was observed | moderate decrease
